Measured values published in patent publication US4981789A, “One-step enzymatic conversion of cephalosporin C and derivatives to 7-aminocephalosporanic acid and derivatives” (priority 1987, dated 1991).

Test system: cephalosporin C amidase
Test: Conversion of desacetoxycephalosporin C to 7-ADCA by cephalosporin C amidase
Assay type: biochemical, Arthrobacter viscosus ATCC 53594
Procedure: As already described above, desacetoxycephalosporin C (DOAC) may be converted to 7-aminodesacetoxycephalosporanic acid (7-ADCA) using the enzyme and method of the present invention. This conversion may be illustrated as follows: [drawing 10] Cephalosporin C amidase, prepared as described above in Example 1, was incubated with 2 mg/ml DAOC for 3 hrs at 37° C. The reaction mixture required a pre-chromatography separation step using XAD-16® (Rohm and Haas) macroreticular water insoluble cross linked adsorbent polymer to remove coeluting contaminants. Chromatography was carried out in accordance with the procedures described above in Example 1 (except that the mobile phase consisted of 1 liter deionized water, 1.88 g hexyl sodium sulfonate, 2.025 ml phosphoric acid, and 25 ml acetonitrile, pH 2.75), and established that approximately 0.5 to 1.0% of the original DOAC substrate had been converted to 7-ADCA.

## CC1=C(C(=O)O)N2C(=O)C(NC(=O)CCCC(N)C(=O)O)C2SC1 (stereo not shown) [DOAC, desacetoxycephalosporin C]
  extent of conversion to 7-ADCA compared with conversion of cephalosporin C to 7-ACA: essentially equivalent to the conversion of cephalosporin C to 7-aminocephalosporanic acid
